Consider eleven molecules from PubChem BioAssay (NCI).

Some test systems named below: HOP-92 NSCLC; OVCAR-4 ovarian; SF-268 CNS; M14 melanoma; SF-295 CNS; LOX IMVI melanoma; MCF7 breast; MALME-3M melanoma; IGROV1 ovarian; HOP-62 NSCLC.
Holding throughout (assay): NCI-60 cell line screen, 48 h

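Grown in 96-well plates, cells were treated for 48 hours with each compound at five concentrations. Insufficient inhibition: endpoint recorded as highest concentration tested. GI50: concentration for 50% inhibition of growth. TGI: concentration producing complete growth inhibition.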

As to `C/C=C(\C)C(=O)O[C@@H]1C=CC(=O)O[C@H]1COC(=O)[C@H](C)O`, the GI50 in the assay with HOP-92 NSCLC was 7.83 µM; with OVCAR-4 ovarian, 11.5 µM; in the assay with SF-268 CNS, 3.72 µM; in the assay on M14 melanoma, 11.1 µM; in the assay with SF-295 CNS, 27.4 µM; in the assay with LOX IMVI melanoma it was 9.64 µM. The GI50 with MCF7 breast is 4.53 µM; in the assay on MALME-3M melanoma, 12.1 µM; with IGROV1 ovarian it was 7.46 µM; in the assay with HOP-62 NSCLC, 16.8 µM. Besides, the TGI with HOP-92 NSCLC is 21.9 µM; with OVCAR-4 ovarian, 31 µM; in the assay with SF-268 CNS it was 19.5 µM; in the assay with M14 melanoma, 30 µM; in the assay on SF-295 CNS it was 62.1 µM; with LOX IMVI melanoma, 22.2 µM. For the same molecule, the TGI turned out to be 18.3 µM in the assay with MCF7 breast, 25.9 µM with MALME-3M melanoma, 24.6 µM in the assay with IGROV1 ovarian and 33.3 µM with HOP-62 NSCLC.

As for `Nc1nccc(C#Cc2cncnc2Nc2ccc(OCc3cccc(F)c3)c(Cl)c2)n1`, the GI50 in the assay on HOP-92 NSCLC was 3.73 µM; in the assay with OVCAR-4 ovarian, 9.53 µM; in the assay with SF-268 CNS, 4.5 µM; with M14 melanoma it was 4.51 µM; with SF-295 CNS it was 11.7 µM; in the assay with LOX IMVI melanoma, 1.72 µM. The GI50 was 3.99 µM in the assay with MCF7 breast, 5.26 µM in the assay with MALME-3M melanoma, 5.1 µM in the assay on IGROV1 ovarian and 4.93 µM with HOP-62 NSCLC. Besides, the TGI with HOP-92 NSCLC was 8.95 µM; in the assay on OVCAR-4 ovarian it was above 25 µM; with SF-268 CNS it was 9.28 µM; in the assay on M14 melanoma it was 9.43 µM; in the assay with SF-295 CNS it was above 25 µM; in the assay with LOX IMVI melanoma it was 6.01 µM. Moreover, the TGI in the assay with MCF7 breast was determined as 8.25 µM; in the assay on MALME-3M melanoma it was 13.1 µM; in the assay on IGROV1 ovarian, 20 µM; in the assay on HOP-62 NSCLC, 9.17 µM.

For the molecule `O=S(=O)(Nc1ccc2ccc3cccc4ccc1c2c34)c1ccccc1`, the TGI is 98.3 µM in the assay on HOP-92 NSCLC; above 100 µM with OVCAR-4 ovarian; above 100 µM in the assay on SF-268 CNS; above 100 µM in the assay on M14 melanoma; above 100 µM with SF-295 CNS; above 100 µM in the assay on LOX IMVI melanoma. In addition, the TGI with MCF7 breast, in the assay on MALME-3M melanoma, in the assay on IGROV1 ovarian and in the assay on HOP-62 NSCLC was above 100 µM in each case.

In the case of `COc1cc2c(cc1OCCCN1CCN(CCCOc3cc4c(cc3OC)C(=O)C3CCC[C@H]3C=N4)CC1)N=C[C@@H]1CCCC1C2=O` (some centres undefined), the GI50 in the assay on HOP-92 NSCLC was 0.597 µM; with OVCAR-4 ovarian, 74.3 µM; in the assay on SF-268 CNS, 3 µM; in the assay with M14 melanoma it was 6.25 µM; in the assay with SF-295 CNS, 9.4 µM; in the assay with LOX IMVI melanoma, 3.65 µM. Also, the GI50 in the assay on MCF7 breast was 1.44 µM; with MALME-3M melanoma, 2.83 µM; in the assay with IGROV1 ovarian, 3.27 µM; with HOP-62 NSCLC, 4.78 µM. Moreover, the TGI in the assay on HOP-92 NSCLC was above 61.4 µM; with OVCAR-4 ovarian, above 100 µM; in the assay with SF-268 CNS it was above 100 µM; in the assay with M14 melanoma, 22.7 µM; with SF-295 CNS it was 79.8 µM; with LOX IMVI melanoma, above 60.7 µM. Also, the TGI in the assay with MCF7 breast is above 100 µM; with MALME-3M melanoma it was 21.5 µM; in the assay on IGROV1 ovarian, above 23.6 µM; with HOP-62 NSCLC, above 100 µM.

Regarding `CC[C@]12C=CCN3CC[C@]4(C(=C(C(=O)OC)C1)Nc1ccccc14)[C@@H]32`, the GI50 is 2.28 µM in the assay on HOP-92 NSCLC; 4.4 µM in the assay with OVCAR-4 ovarian; 4.6 µM in the assay with SF-268 CNS; 2.97 µM in the assay with M14 melanoma; 13 µM in the assay on SF-295 CNS; 1.94 µM in the assay with LOX IMVI melanoma. Also, the GI50 is 3.33 µM in the assay with MCF7 breast, 3.43 µM in the assay with MALME-3M melanoma, 5.8 µM in the assay on IGROV1 ovarian and 9.78 µM in the assay on HOP-62 NSCLC. In addition, the TGI in the assay with HOP-92 NSCLC was found to be 9.27 µM; with OVCAR-4 ovarian, 17.5 µM; with SF-268 CNS it was 19.3 µM; with M14 melanoma, 12.5 µM; in the assay on SF-295 CNS, 26.6 µM; in the assay on LOX IMVI melanoma, 4.13 µM. In addition, the TGI with MCF7 breast was 13.1 µM; with MALME-3M melanoma it was 15.2 µM; in the assay with IGROV1 ovarian, 20.6 µM; with HOP-62 NSCLC it was 28.4 µM.

On to `S=c1nc(/C=C/c2ccc(Cl)c(Cl)c2)[nH][nH]1`, for which the GI50 with HOP-92 NSCLC was 0.802 µM; with OVCAR-4 ovarian, 65.5 µM; with M14 melanoma, 94.7 µM; in the assay with MCF7 breast, above 100 µM. The TGI is 64.6 µM with HOP-92 NSCLC; above 100 µM in the assay with OVCAR-4 ovarian; above 100 µM with SF-268 CNS; above 100 µM in the assay with M14 melanoma; above 100 µM in the assay on SF-295 CNS; above 100 µM in the assay with LOX IMVI melanoma. Besides, the TGI in the assay on MCF7 breast, in the assay on MALME-3M melanoma, in the assay on IGROV1 ovarian and in the assay with HOP-62 NSCLC was above 100 µM each time.

Consider `c1ccc(COc2ccc(Nc3ncnc4ccc(-c5ccco5)cc34)cc2)cc1`, for which the GI50 in the assay with HOP-92 NSCLC was 0.379 µM; in the assay on OVCAR-4 ovarian it was 4.69 µM; in the assay with SF-268 CNS it was 8.29 µM; with M14 melanoma, 7.31 µM; in the assay with SF-295 CNS, 8.62 µM; with LOX IMVI melanoma it was 4.36 µM. For the same molecule, the GI50 in the assay on MCF7 breast was 0.572 µM; in the assay on MALME-3M melanoma it was 6.04 µM; in the assay on IGROV1 ovarian it was 7.11 µM; in the assay with HOP-62 NSCLC it was 5.85 µM. The TGI in the assay with HOP-92 NSCLC was 7.21 µM; with OVCAR-4 ovarian, 17.1 µM; in the assay with SF-268 CNS it was above 25 µM; in the assay on M14 melanoma, 19.9 µM; in the assay on SF-295 CNS, above 25 µM; with LOX IMVI melanoma, 8.96 µM. Also, the TGI in the assay on MCF7 breast is above 13.5 µM; with MALME-3M melanoma, above 21.1 µM; in the assay on IGROV1 ovarian, above 23.1 µM; in the assay on HOP-62 NSCLC, 16 µM.

Regarding `C#CCSc1nnnn1-c1ccc(Br)c(C)c1`, the GI50 in the assay with HOP-92 NSCLC was 14.5 µM; in the assay on OVCAR-4 ovarian it was 31.1 µM; with SF-268 CNS, 24.6 µM; in the assay on M14 melanoma, 31.1 µM; with SF-295 CNS it was 29.5 µM; in the assay on LOX IMVI melanoma it was 20.9 µM. For the same molecule, the GI50 is 28.4 µM with MCF7 breast, 27.2 µM with MALME-3M melanoma, 2.77 µM with IGROV1 ovarian and 64.3 µM with HOP-62 NSCLC. Also, the TGI in the assay on HOP-92 NSCLC was 74.5 µM; with OVCAR-4 ovarian it was above 100 µM; in the assay on SF-268 CNS, above 100 µM; in the assay on M14 melanoma, above 100 µM; with SF-295 CNS it was above 100 µM; with LOX IMVI melanoma, above 100 µM. Further, the TGI was above 100 µM with MCF7 breast, 71.8 µM with MALME-3M melanoma, 9.16 µM with IGROV1 ovarian and above 100 µM in the assay with HOP-62 NSCLC.

On to `CCOC(=O)/C(=C/c1c(-c2ccccc2)[nH]c2ccccc12)C(=O)c1ccc(Cl)cc1`, for which the GI50 is 1.93 µM in the assay with HOP-92 NSCLC; 4.82 µM in the assay on OVCAR-4 ovarian; 6.06 µM in the assay with SF-268 CNS; 3.07 µM with M14 melanoma; 4.2 µM in the assay on SF-295 CNS; 3.64 µM in the assay with LOX IMVI melanoma. The GI50 was 2.91 µM in the assay on MCF7 breast, 3.09 µM in the assay on MALME-3M melanoma, 19.9 µM with IGROV1 ovarian and 4.59 µM in the assay with HOP-62 NSCLC. For the same molecule, the TGI is 15 µM in the assay with HOP-92 NSCLC; above 100 µM in the assay with OVCAR-4 ovarian; above 100 µM in the assay with SF-268 CNS; above 100 µM in the assay on M14 melanoma; above 100 µM in the assay with SF-295 CNS; above 100 µM in the assay on LOX IMVI melanoma. Further, the TGI in the assay with MCF7 breast, in the assay on MALME-3M melanoma, with IGROV1 ovarian and with HOP-62 NSCLC was above 100 µM throughout.

For `COc1cc2nc(-c3ccc(Cl)cc3)cc(OCCCN3CCC(O)CC3)c2cc1OC`, the GI50 is 1.25 µM with HOP-92 NSCLC; 4.34 µM in the assay with OVCAR-4 ovarian; 3.36 µM with SF-268 CNS; 0.591 µM in the assay on M14 melanoma; 1.66 µM in the assay with SF-295 CNS; 0.227 µM in the assay on LOX IMVI melanoma. In addition, the GI50 in the assay on MCF7 breast was 1.6 µM; with MALME-3M melanoma, 1.89 µM; in the assay on IGROV1 ovarian, 0.923 µM; in the assay with HOP-62 NSCLC it was 1.98 µM. In addition, the TGI in the assay with HOP-92 NSCLC is 6.79 µM; with OVCAR-4 ovarian it was above 100 µM; in the assay with SF-268 CNS, 19.6 µM; with M14 melanoma, 2.21 µM; in the assay on SF-295 CNS, 3.58 µM; in the assay with LOX IMVI melanoma, 0.589 µM. Moreover, the TGI is 3.79 µM in the assay with MCF7 breast, 4.95 µM with MALME-3M melanoma, 14.9 µM in the assay with IGROV1 ovarian and 10.4 µM in the assay on HOP-62 NSCLC.

Turning to `C[C@@H](Oc1cc(-n2cnc3ccc(OCC4CCN(C)CC4)cc32)sc1C(N)=O)c1ccccc1C(F)(F)F`, the GI50 in the assay on HOP-92 NSCLC is 0.307 µM; in the assay on OVCAR-4 ovarian, 0.699 µM; in the assay on SF-268 CNS, 0.14 µM; in the assay with M14 melanoma, 0.0879 µM; in the assay on SF-295 CNS it was 0.138 µM; in the assay with LOX IMVI melanoma, 0.106 µM. The GI50 with MCF7 breast is 0.0651 µM; with MALME-3M melanoma it was 2.79 µM; in the assay on IGROV1 ovarian, 0.217 µM; in the assay with HOP-62 NSCLC, 0.0994 µM. For the same molecule, the TGI in the assay with HOP-92 NSCLC was 3.43 µM; with OVCAR-4 ovarian it was 4.69 µM; in the assay on SF-268 CNS it was 3.86 µM; with M14 melanoma it was 1.25 µM; in the assay with SF-295 CNS it was 3.39 µM; in the assay on LOX IMVI melanoma, 3.27 µM. Besides, the TGI with MCF7 breast amounted to 3.18 µM; in the assay with MALME-3M melanoma, 6.97 µM; in the assay with IGROV1 ovarian, 4.41 µM; in the assay with HOP-62 NSCLC, 3.11 µM.
